Data published in DBAASP.
Converted amounts (≈) assume the structure as drawn. Values belong to the compound of their own block, whether it stands above or below them.

How the values were obtained:
Assay in all cases: ≥ marks a high value that may be exact or a test limit, other limits are often not marked, values filed in µg/mL are converted to µM
[1] = system: Bacillus subtilis ATCC 23857
[2] = system: Escherichia coli ATCC 25922
[3] = system: Klebsiella pneumoniae ATCC 700603
[4] = system: Pseudomonas aeruginosa ATCC 9027
[5] = system: Staphylococcus aureus ATCC 25923
[6] = system: Candida albicans ATCC 90028
[7] = system: Staphylococcus aureus NCTC 8325
Bacillus subtilis 168 = system: Bacillus subtilis 168
Escherichia coli B = system: Escherichia coli B
Pseudomonas aeruginosa = system: Pseudomonas aeruginosa
Staphylococcus aureus = system: Staphylococcus aureus
[8] = system: Staphylococcus aureus NCTC 10788

MIC [1]: 8 µM (≈ 11.7 µg/mL)
MIC [2]: 8 µM (≈ 11.7 µg/mL)
MIC [3]: 32 µM (≈ 46.9 µg/mL)
MIC [4]: 32 µM (≈ 46.9 µg/mL)
MIC [5]: 32 µM (≈ 46.9 µg/mL)
Compound: CC(C)C[C@H](NC(=O)[C@H](C)NC(=O)[C@H](CCCCN)NC(=O)[C@H](CCCCN)NC(=O)[C@H](C)NC(=O)[C@@H](NC(=O)[C@H](C)NC(=O)[C@H](CC(C)C)NC(=O)[C@H](CC(C)C)NC(=O)[C@H](C)NC(=O)[C@H](CCCCN)NC(=O)[C@H](CC(C)C)NC(=O)[C@H](CC(N)=O)NC(=O)[C@@H](N)CC(C)C)C(C)C)C(N)=O [LNLKALLAVAKKAL]

MIC [6]: ≥ 58 µM
MIC [2]: 1.5 µM (≈ 3.92 µg/mL)
MIC [7]: ≥ 55 µM
Compound: CC[C@H](C)[C@@H]1NC(=O)[C@H](CCCCN)NC(=O)[C@@H](NC(=O)[C@H](C)NC(=O)[C@@H](NC(=O)[C@H](CC(C)C)NC(=O)CNC(=O)[C@H](CC(C)C)NC(=O)CNC(=O)[C@@H](NC(=O)[C@H](CCCCN)NC(=O)CNC(=O)[C@H](CC(C)C)NC(=O)[C@H](CC(N)=O)NC(=O)[C@H](CCCCN)NC(=O)[C@H](CC(C)C)NC(=O)[C@@H](NC(=O)[C@H](CO)NC(=O)[C@H](CC(C)C)NC(=O)[C@H](CCSC)NC(=O)[C@@H](N)CO)C(C)C)C(C)C)C(C)C)CSSC[C@@H](C(=O)O)NC(=O)[C@H](CCC(N)=O)NC(=O)[C@H](CCCCN)NC(=O)[C@H](CC(N)=O)NC1=O [SMLSVLKNLGKVGLGLVACKINKQC]

MIC [2]: > 50 µM
MIC [7]: 25 µM (≈ 44.8 µg/mL)
Compound: CC[C@H](C)[C@H](NC(=O)CNC(=O)[C@H](CO)NC(=O)[C@H](CC(C)C)NC(=O)[C@H](CC(C)C)NC(=O)[C@H](CCCCN)NC(=O)CNC(=O)[C@@H](NC(=O)[C@@H](NC(=O)[C@@H]1CCCN1C(=O)[C@H](CC(C)C)NC(=O)[C@@H](NC(=O)[C@@H](NC(=O)[C@@H]1CCCN1C(=O)[C@H](CC(C)C)NC(=O)[C@@H](N)Cc1ccccc1)C(C)C)[C@@H](C)CC)C(C)C)[C@@H](C)CC)C(=O)N[C@@H](CC(C)C)C(N)=O [FLPVILPVIGKLLSGIL]

MIC (Bacillus subtilis 168): 1.5 µM (≈ 2.29 µg/mL)
MIC (Escherichia coli B): 3.9 µM (≈ 5.95 µg/mL)
MIC (Pseudomonas aeruginosa): 13.5 µM (≈ 20.6 µg/mL)
MIC (Staphylococcus aureus): 10.1 µM (≈ 15.4 µg/mL)
Compound: CC[C@H](C)[C@H](NC(=O)[C@H](Cc1cnc[nH]1)NC(=O)[C@H](CCCCN)NC(=O)[C@H](CC(C)C)NC(=O)[C@H](Cc1c[nH]c2ccccc12)NC(=O)[C@H](CO)NC(=O)[C@H](CCSC)NC(=O)[C@H](Cc1c[nH]c2ccccc12)NC(=O)[C@H](CCCCN)NC(=O)CN)C(=O)N[C@@H](CC(C)C)C(=O)N[C@@H](CCCCN)C(N)=O [GKWMSWLKHILK]

MIC (Bacillus subtilis 168): 2.2 µM (≈ 3.19 µg/mL)
MIC (Escherichia coli B): 8 µM (≈ 11.6 µg/mL)
MIC (Pseudomonas aeruginosa): 56.7 µM (≈ 82.2 µg/mL)
MIC (Staphylococcus aureus): 25 µM (≈ 36.2 µg/mL)
Compound: CC[C@H](C)[C@H](NC(=O)[C@H](Cc1cnc[nH]1)NC(=O)[C@H](CCCCN)NC(=O)[C@H](CC(C)C)NC(=O)[C@H](CC(C)C)NC(=O)[C@H](CO)NC(=O)[C@H](CCC(N)=O)NC(=O)[C@H](Cc1c[nH]c2ccccc12)NC(=O)[C@H](CCCCN)NC(=O)CN)C(=O)N[C@@H](CC(C)C)C(=O)N[C@@H](CCCCN)C(N)=O [GKWQSLLKHILK]

MIC (Bacillus subtilis 168): 1.2 µM (≈ 1.74 µg/mL)
MIC (Escherichia coli B): 3.7 µM (≈ 5.36 µg/mL)
MIC (Pseudomonas aeruginosa): 34.2 µM (≈ 49.6 µg/mL)
MIC (Staphylococcus aureus): 20 µM (≈ 29 µg/mL)
Compound: CC[C@H](C)[C@H](NC(=O)[C@H](Cc1cnc[nH]1)NC(=O)[C@H](CCCCN)NC(=O)[C@H](CC(C)C)NC(=O)[C@H](CC(C)C)NC(=O)[C@H](CO)NC(=O)[C@H](CCCCN)NC(=O)[C@H](Cc1c[nH]c2ccccc12)NC(=O)[C@H](CCCCN)NC(=O)CN)C(=O)N[C@@H](CC(C)C)C(=O)N[C@@H](CCCCN)C(N)=O [GKWKSLLKHILK]

MIC [1]: 8 µM (≈ 11.7 µg/mL)
MIC [2]: 8 µM (≈ 11.7 µg/mL)
MIC [3]: 16 µM (≈ 23.4 µg/mL)
MIC [4]: 32 µM (≈ 46.9 µg/mL)
MIC [5]: 32 µM (≈ 46.9 µg/mL)
Compound: CC[C@H](C)[C@H](NC(=O)[C@H](CCCCN)NC(=O)[C@H](CCCCN)NC(=O)[C@H](C)NC(=O)[C@@H](NC(=O)[C@H](C)NC(=O)[C@H](CC(C)C)NC(=O)[C@H](CC(C)C)NC(=O)[C@H](C)NC(=O)[C@H](CCCCN)NC(=O)[C@H](CC(C)C)NC(=O)[C@H](CC(N)=O)NC(=O)[C@@H](N)CC(C)C)C(C)C)C(=O)N[C@@H](C)C(N)=O [LNLKALLAVAKKIA]

MIC [1]: 16 µM (≈ 23.2 µg/mL)
MIC [2]: 64 µM (≈ 92.8 µg/mL)
Compound: CC[C@H](C)[C@H](NC(=O)CN)C(=O)N[C@@H](CCCN=C(N)N)C(=O)N[C@@H](CCCN=C(N)N)C(=O)NCC(=O)N[C@H](C(=O)N[C@H](C(=O)N[C@@H](CCCN=C(N)N)C(=O)N[C@H](C(=O)N[C@H](C(=O)N[C@@H](CCCCN)C(=O)N[C@@H](CCCN=C(N)N)C(N)=O)[C@@H](C)CC)[C@@H](C)CC)[C@@H](C)CC)[C@@H](C)CC [GIRRGIIRIIKR]

MIC [2]: 16 µM (≈ 41.3 µg/mL)
MIC [7]: 8 µM (≈ 20.6 µg/mL)
Compound: CC[C@H](C)[C@@H]1NC(=O)[C@H](CC(C)C)NC(=O)[C@@H](NC(=O)[C@@H](NC(=O)[C@H](Cc2ccccc2)NC(=O)[C@H](CCCCN)NC(=O)[C@@H]2CCCN2C(=O)[C@@H](NC(=O)[C@H](CCSC)NC(=O)[C@H](CO)NC(=O)[C@H](C)NC(=O)[C@H](C)NC(=O)[C@H](CC(C)C)NC(=O)CNC(=O)[C@H](C)NC(=O)[C@H](CC(C)C)NC(=O)[C@H](CCSC)NC(=O)[C@@H]2CCCN2C(=O)[C@H](CC(C)C)NC(=O)[C@@H](N)Cc2ccccc2)C(C)C)C(C)C)CSSC[C@@H](C(=O)O)NC(=O)[C@H](CCCCN)NC(=O)[C@H](CCCCN)NC(=O)[C@H]([C@@H](C)O)NC1=O [FLPMLAGLAASMVPKFVCLITKKC]

MIC [6]: ≥ 100 µM
MIC [2]: > 100 µM
MIC [7]: ≥ 100 µM
Compound: CC[C@H](C)[C@H](N)C(=O)N[C@@H](CC(C)C)C(=O)N1CCC[C@H]1C(=O)N[C@H](C(=O)N[C@@H](CC(C)C)C(=O)NCC(=O)N[C@@H](CC(N)=O)C(=O)N[C@@H](CC(C)C)C(=O)N[C@@H](CC(C)C)C(=O)N[C@@H](CC(N)=O)C(=O)NCC(=O)N[C@@H](CC(C)C)C(=O)N[C@@H](CC(C)C)C(N)=O)[C@@H](C)CC [ILPILGNLLNGLL]

MIC [1]: ≥ 128 µM
MIC [2]: > 128 µM
Compound: CC[C@H](C)[C@H](NC(=O)CN)C(=O)N[C@@H](CCCN=C(N)N)C(=O)N[C@@H](CCCN=C(N)N)C(=O)NCC(=O)N[C@H](C(=O)N[C@@H](CCCN=C(N)N)C(=O)N[C@@H](CCCN=C(N)N)C(=O)N[C@H](C(=O)N[C@@H](CCCCN)C(=O)N[C@@H](CCCCN)C(=O)N[C@@H](CCCN=C(N)N)C(N)=O)[C@@H](C)CC)[C@@H](C)CC [GIRRGIRRIKKR]

MIC [6]: ≥ 100 µM
MIC [2]: 6 µM (≈ 19.7 µg/mL)
MIC [7]: 25 µM (≈ 82.2 µg/mL)
Compound: CC[C@H](C)[C@H](NC(=O)[C@H](CC(C)C)NC(=O)[C@H](CC(C)C)NC(=O)[C@H](CC(N)=O)NC(=O)[C@H](CCCCN)NC(=O)[C@@H](NC(=O)[C@@H](NC(=O)CNC(=O)[C@H](CC(C)C)NC(=O)[C@@H](NC(=O)CN)C(C)C)[C@@H](C)O)C(C)C)C(=O)NCC(=O)N[C@@H](C)C(=O)NCC(=O)N[C@@H](CCCCN)C(=O)N[C@@H](CO)C(=O)N[C@@H](C)C(=O)N[C@@H](C)C(=O)N[C@@H](CCC(N)=O)C(=O)N[C@@H](CO)C(=O)N[C@H](C(=O)N[C@@H](CC(C)C)C(=O)N[C@@H](CCCCN)C(=O)N[C@H](C(=O)N[C@@H](CC(C)C)C(=O)N[C@@H](CO)C(=O)N[C@H]1CSSC[C@@H](C(=O)O)NC(=O)[C@H](CC(=O)O)NC(=O)[C@H](CC(N)=O)NC(=O)[C@H](CO)NC(=O)[C@H](CC(C)C)NC(=O)[C@H](CCCCN)NC1=O)[C@@H](C)O)C(C)C [GVLGTVKNLLIGAGKSAAQSVLKTLSCKLSNDC]

MIC (Bacillus subtilis 168): 0.9 µM (≈ 1.75 µg/mL)
MIC (Escherichia coli B): 1.8 µM (≈ 3.5 µg/mL)
MIC (Pseudomonas aeruginosa): 27.5 µM (≈ 53.4 µg/mL)
MIC (Staphylococcus aureus): 5 µM (≈ 9.71 µg/mL)
Compound: CC[C@H](C)[C@H](NC(=O)[C@H](CO)NC(=O)[C@H](CC(C)C)NC(=O)[C@H](Cc1ccccc1)NC(=O)CN)C(=O)N[C@@H](CC(C)C)C(=O)N[C@@H](CCCCN)C(=O)N[C@@H](CCCCN)C(=O)N[C@H](C(=O)N[C@@H](CC(C)C)C(=O)N[C@@H](CCCCN)C(=O)N[C@H](C(=O)N[C@@H](CCSC)C(=O)N[C@@H](C)C(=O)N[C@@H](Cc1cnc[nH]1)C(=O)N[C@@H](CCSC)C(=O)N[C@@H](CCCCN)C(N)=O)C(C)C)C(C)C [GFLSILKKVLKVMAHMK]

MIC [1]: 8 µM (≈ 10.8 µg/mL)
MIC [2]: > 128 µM
Compound: CC[C@H](C)[C@H](NC(=O)CN)C(=O)N[C@H](C(=O)N[C@@H](CCCN=C(N)N)C(=O)NCC(=O)N[C@H](C(=O)N[C@H](C(=O)N[C@@H](CCCN=C(N)N)C(=O)N[C@@H](CCCN=C(N)N)C(=O)N[C@H](C(=O)N[C@@H](CCCCN)C(=O)NCC(N)=O)[C@@H](C)CC)[C@@H](C)CC)[C@@H](C)CC)[C@@H](C)CC [GIIRGIIRRIKG]

MIC [8]: ≥ 284 µM
Compound: CC(C)C[C@H](NC(=O)[C@H](CC(C)C)NC(=O)CNC(=O)CNC(=O)[C@H](CC(C)C)NC(=O)[C@H](CC(C)C)NC(=O)CNC(=O)[C@H](CC(C)C)NC(=O)[C@@H](N)Cc1ccccc1)C(N)=O [FLGLLGGLL]

MIC [2]: 12.5 µM (≈ 28.2 µg/mL)
MIC [7]: ≥ 50 µM
Compound: CC[C@H](C)[C@H](NC(=O)CN)C(=O)N[C@@H](Cc1c[nH]c2ccccc12)C(=O)N[C@@H](CC(=O)O)C(=O)N[C@H](C(=O)N[C@@H](CC(C)C)C(=O)N[C@@H](CCCCN)C(=O)N[C@@H](CC(N)=O)C(=O)N[C@H](C(=O)NCC(=O)N[C@@H](CCCCN)C(=O)N[C@@H](C)C(=O)N[C@H](C(=O)N[C@@H](CC(C)C)C(=O)NCC(=O)N[C@@H](CCCCN)C(=O)N[C@H](C(=O)N[C@@H](CC(C)C)C(=O)N[C@@H](CCC(=O)O)C(=O)N[C@@H](CC(N)=O)C(=O)N[C@H](C(N)=O)C(C)C)C(C)C)C(C)C)C(C)C)[C@@H](C)O [GIWDTLKNVGKAVLGKVLENV]
